In PubChem BioAssay (NCI):
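Five compound concentrations were applied to cells in 96-well plates for 48 hours; endpoints were derived by simple linear interpolation of the resulting dose-response curve. GI50 = concentration required for 50% inhibition of growth. TGI denotes the concentration required for complete inhibition of growth.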

Experiments:
Assay in all cases: NCI tumour cell line growth inhibition, 48 h
[1] = system: OVCAR-8 ovarian
[2] = system: HL-60(TB) leukemia
[3] = system: NCI-H226 lung
[4] = system: UACC-62 melanoma
[5] = system: M14 melanoma
[6] = system: SK-MEL-2 melanoma
[7] = system: HT29 colon
[8] = system: ACHN renal
[9] = system: EKVX NSCLC
[10] = system: MALME-3M melanoma
[11] = system: UO-31 renal
[12] = system: NCI-H460 lung

| SMILES | TGI [1] | TGI [2] | TGI [3] | TGI [4] | TGI [5] | TGI [6] | TGI [7] | TGI [8] | TGI [9] | TGI [10] | TGI [11] | TGI [12] | GI50 [4] |
| --- | --- | --- | --- | --- | --- | --- | --- | --- | --- | --- | --- | --- | --- |
| CCCNc1c(Cl)cc(Cl)c2[nH]c3ccccc3c(=O)c12 | > 100 µM | 47.6 µM | > 100 µM | > 100 µM | > 100 µM | > 100 µM | > 100 µM | > 100 µM | > 100 µM | 75.3 µM | > 100 µM |  |  |
| CC1=NN(c2ccccc2Cl)C2(C1)SCC(=O)N2c1nc2ccccc2s1 (stereo unspecified) | > 100 µM |  | > 100 µM | > 100 µM | > 100 µM | > 100 µM | > 100 µM | > 100 µM | > 100 µM | > 100 µM | > 100 µM | > 100 µM |  |
| CCC/C(Cl)=N/OC(=O)Nc1cccc(F)c1 | 37.4 µM |  | 27.9 µM | 32.6 µM | 14.7 µM | 33.4 µM | 9.35 µM | 2.88 µM | 12.2 µM | 3.11 µM | 23.3 µM | 39 µM |  |
| COc1cc([C@@H]2c3cc4c(cc3[C@@H](N=Cc3ccc(C(=O)O[C@H]5C[C@H]6OC[C@@]6(OC(C)=O)[C@H]6[C@H](OC(=O)c7ccccc7)[C@]7(O)C[C@H](OC(=O)[C@H](OC(=O)c8ccc(C=N[C@@H]9c%10cc%11c(cc%10[C@@H](c%10cc(OC)c(O)c(OC)c%10)[C@H]%10C(=O)OC[C@@H]%109)OCO%11)cc8)[C@@H](NC(=O)c8ccccc8)c8ccccc8)C(C)=C([C@@H](OC(C)=O)C(=O)[C@]56C)C7(C)C)cc3)C3COC(=O)C32)OCO4)cc(C)c1O (stereo partly specified) | > 50 µM | > 50 µM | > 50 µM | > 39.2 µM | > 21 µM | > 50 µM | > 25.2 µM | > 50 µM | > 35.2 µM | > 50 µM |  | > 50 µM |  |
| c1ccc(NC2(c3nnnn3C3CCCCC3)CCNCC2)cc1 | 81.9 µM | 31.5 µM | 62.3 µM | 38.5 µM | 35.8 µM |  | 35.8 µM | 52.6 µM | 79.7 µM | 32.4 µM | 27.7 µM | 31.7 µM |  |
| COc1ccc(N=C/C=C/C(=C/COC(C)=O)OC(C)=O)cc1 | > 100 µM | 98.5 µM | > 100 µM | > 100 µM | > 100 µM | 48.1 µM | 70.6 µM | 34.4 µM | > 100 µM | 69.5 µM |  | 98.6 µM |  |
| COc1cc(/C=C2\N=C(c3ccccc3)N(/N=C/c3cc4cc(C)ccc4nc3Cl)C2=O)ccc1O | > 100 µM | 76.6 µM |  | > 100 µM | > 100 µM | 38.4 µM | > 100 µM | > 100 µM | > 100 µM |  | > 100 µM | > 100 µM |  |
| O=[N+]([O-])c1ccc2nc(/C=C(\O)c3ccccc3)c(/C=C(\O)c3ccc(Cl)cc3)nc2c1 | > 100 µM |  | > 100 µM | > 100 µM | > 100 µM | > 100 µM | > 100 µM | > 100 µM | > 100 µM | > 100 µM | > 100 µM | > 100 µM |  |
| N/C(=N/O)c1cn(C2OC(CO)C(O)C2O)c2ncnc(NO)c12 (stereo unspecified) | > 100 µM | 0.76 µM | 17.4 µM | 1.66 µM | 2.88 µM | 0.176 µM | > 100 µM | 4.72 µM | > 100 µM | 0.408 µM |  | 7.59 µM |  |
| CC(=O)Nc1ccccc1S(=O)(=O)c1c(-c2c(C)c(Cl)c(C)c(Cl)c2C)noc1C | > 100 µM |  | 78.8 µM | > 100 µM | > 100 µM | > 100 µM | > 100 µM | > 100 µM | > 100 µM | > 100 µM | > 100 µM | > 100 µM |  |
| COc1ccc(OC)c(CC(=O)c2ccc(O)c(C(=O)NCCc3ccc(F)cc3)c2)c1 | 21.8 µM | 7.29 µM |  | 21.6 µM | 9.2 µM | 12.3 µM | 30.5 µM | 56.9 µM | 36.2 µM | 6.9 µM | 23.4 µM | 34 µM | 4.01 µM |
| COC(=O)C1CCCCCCCCCCC12SCCCS2 (stereo unspecified) | 48.8 µM |  | 42.8 µM | 59.4 µM | 31 µM | 41.9 µM | 91.5 µM | 40.2 µM | 35.6 µM | 37.6 µM | 38.8 µM | > 100 µM |  |
| COc1ccc2c(c1)CC[C@@H]1C2CC[C@]2(C)C(=O)N(C)C(=O)CC12 (stereo partly specified) | > 100 µM | > 100 µM | > 100 µM | > 100 µM | > 100 µM |  | > 100 µM | > 100 µM | > 100 µM | > 100 µM | > 100 µM | > 100 µM |  |
| CC(C)(C)OC(=O)N1CCC[C@H]1CSC[C@@H]1CCCN1C(=O)OC(C)(C)C | > 100 µM |  |  | 57.2 µM | 38.2 µM | 40.6 µM | 34.9 µM | 82.2 µM | > 100 µM | 63.5 µM | 74.9 µM | > 100 µM |  |
| Cc1c(/C=N\NC(=S)N(C)CCN(C)C(=S)N/N=C\c2c(C)n(C)n(-c3ccccc3)c2=O)c(=O)n(-c2ccccc2)n1C |  |  | > 100 µM | > 100 µM | > 100 µM | > 100 µM | > 100 µM | > 100 µM | > 100 µM | > 100 µM | > 100 µM | > 100 µM |  |
| COc1ccc(-c2c(C(=O)Nc3ccccc3)c(-c3ccccc3)n(C3OC(CO)C(O)C(O)C3O)c(=S)c2C#N)cc1 (stereo unspecified) | > 100 µM | > 100 µM | > 100 µM | > 100 µM | > 100 µM |  | > 100 µM | > 100 µM | > 100 µM | > 100 µM | > 100 µM | > 100 µM |  |
| O=C(O)C1CCCCN1CCc1c[nH]c2ccccc12 (stereo unspecified) | > 100 µM | > 100 µM | > 100 µM | > 100 µM | > 100 µM | > 100 µM | > 100 µM | > 100 µM | > 100 µM | > 100 µM |  | > 100 µM |  |
| CSc1ccc(C=C2N=C(c3ccccc3)N(c3cc(C(=O)c4ccccc4)ccc3N3C(=O)/C(=C/c4ccc(SC)cc4)N=C3c3ccccc3)C2=O)cc1 | > 100 µM | > 100 µM |  | > 100 µM | > 100 µM | > 100 µM | > 100 µM | > 100 µM | > 100 µM |  | > 100 µM | > 100 µM |  |
| CC(=O)NC1C(OCc2ccccc2)OC(CO)C(O)C1OCC(=O)NC(C)C(=O)NC(CCC(=O)Nc1ccc2c(c1)CN1C(=O)c3ccccc3C1=N2)C(N)=O (stereo unspecified) | > 100 µM | > 100 µM |  | > 100 µM | > 100 µM | > 100 µM | > 100 µM | > 100 µM | > 100 µM | > 100 µM | > 100 µM | > 100 µM |  |
